Reference: patent US7736646B2, “Methods for modulating angiogenesis with apelin compositions” (Arizona Board of Regents on behalf of the University of …, priority 2003, dated 2010)

How the values were obtained:
[1] = test system: primary rat cardiomyocyte cells; test: Cobalt chloride hypoxia-mimic treatment, transcript levels by PCR; type: cell-based; conditions: 150 μM, 4 hours, versus untreated cells
Description: Because HIF-1α consensus sites are present in the apelin regulatory region, experiments were conducted to determine whether apelin expression is hypoxia responsive and regulated by HIF-1α. Upregulation of apelin expression under hypoxic conditions would be consistent with a role for apelin in promotion of tumor angiogenesis. Preliminary experiments were carried out using primary rat cardiomyocyte cells in culture and treatment with cobalt chloride. This procedure is accepted as an equivalent to culturing cells under hypoxic conditions because HIF-1α is a metal responsive transcription protein (Ladoux and Frelin, 1994; Piret et al., 2002; Maxwell and Salnikow, 2004). Fetal rat cardiac myocytes were plated and cultured in DMEM (Invitrogen, Carlsbad, Calif.) supplemented with 10% fetal calf serum and penicillin/streptomyocin at 37° C. After four days of culture, medium was removed, and cells were treated with fresh media containing 150 μM Cobalt Chloride (Piret et al., 2002). […] After 4 hours of culture, cells were harvested, and total RNA was extracted using the Trizol procedure according to the manufacturers recommendations (Invitrogen, Carlsbad, Calif.).
Following PCR, amplification products were fractionated on an agarose gel and visualized using ethidium bromide staining under ultraviolet light (FIG. 12).

BAE/APJ#2 cells [2] = test: Endothelial cell proliferation assay (BrdU incorporation); type: cell-based, bovine
Description: SU1498 was included in proliferation cultures at a concentration of 10 ng/ml and results were assayed using BrdU incorporation. After growth factor incubation, BrdU was added to each well at a final concentration of 10 μM for 2 hours, cells were washed, and fixed for BrdU immunocytochemistry.
Cells were fixed in 100% ice cold methanol at 4° C. for 2 hours to overnight. Prior to staining, cells were air dried and rehydrated for 3 minutes with PBS buffer. DNA was denatured at 37° C. with 2 M HCl, and neutralized with 2 washes for 5 minutes in 0.1 M borate buffer (pH 8.5). […] FITC-labeled anti-BrdU antibody (5 μg/ml) in block was added for 1 hour at room temperature. Cells were counterstained with propidium iodide following several washes in PBS buffer. For each experiment, 4 random fields were photographed for determination of percentage BrdU labeling.

BAE/APJ#2 cells [3] = conditions: 10 ng/ml in bottom chamber, 16 hours
Description: Bovine aortic endothelial cells (BAE) were cultured in DMEM supplemented with 10% fetal bovine serum (FBS) and penicillin/streptomycin. For generation of stable cell lines expressing APJ, the mouse APJ coding region was cloned into the pcDNA 3.1 vector downstream of the CMV promoter, in frame with a myc epitope at the C-terminal end of the protein, and upstream of the neomycin gene. […] Colonies were isolated and screened using RT-PCR for expression of mouse APJ and also by immunocytochemistry for expression of the myc epitope.
Cell migration assays were performed using Transwell cell culture migration chambers (Becton Dickinson) with 8 micron pore size. BAE/APJ#2 cells were plated in serum free conditions in 100 μl at a concentration of 1×10^5 ml in the upper chamber of the migration chamber. Following cell attachment to the membrane, 10 ng/ml of growth factor was added to the bottom chamber, in a total volume of 0.5 ml. Cells were stimulated with growth factor in DMEM for 16 hours, or DMEM alone, at which time the cells remaining in the upper chamber were removed using a cotton tip applicator. Following a brief wash with PBS the remaining cells were fixed in 3.7% formaldehyde at 4° C. for 1 hour. Cells attached to the membrane in the lower chamber were stained with DAPI, and 3 random fields were counted for each experimental condition.

[4] = test system: chicken chorioallantoic membrane (CAM); conditions: 50 ng on filter disc, three days, compared to control PBS
Description: Chicken eggs were incubated at 37° C. in a humidified chamber. On day 10 of development, a small window was made in the outer shell of the egg, and the CAM was released from its attachment to the inner shell membrane. A larger window was then made in the egg to allow for addition of the filter paper containing growth factor. Filter discs (3MM Whatman) of 7-8 mm diameter were pretreated with 10 μl of 0.1% cortisone acetate (Sigma) solution to avoid inflammation of the CAM. The filter discs were air dried prior to application of growth factors. […] After air-drying, the filter discs were placed on the CAM, and eggs were returned to the incubator for three days. Filter discs and the attached CAM were then excised, washed with PBS, trimmed to the size of the disc, and photographed for quantitative analysis (FIGS. 7A and 7B). The number of vessel branch points was determined using a blind protocol. The results are shown as the mean of three independent experiments +/−s.e.m. (FIG. 7C).

## [Cl][Co][Cl] [Cobalt Chloride]
[1]
  apelin expression (transcript level, PCR): significantly increased

## CC(C)c1cc(/C=C(\C#N)C(=O)NCCCc2ccccc2)cc(C(C)C)c1O [SU1498, reference compound]
BAE/APJ#2 cells [2]; SU1498 10 ng/ml, VEGF 10 ng/ml
  effect on VEGF-mediated proliferation: partially inhibits
BAE/APJ#2 cells [2]; SU1498 10 ng/ml, apelin 10 ng/ml
  effect on apelin-mediated proliferation: no significant effect

## VEGF [reference compound]
BAE/APJ#2 cells [3]
  endothelial cell migration (cells per field): increase in migration

## apelin-13
BAE/APJ#2 cells [3]
  endothelial cell migration (cells per field): promotes endothelial cell migration
BAE/APJ#2 cells [2]; 10 ng/ml, 24 hours, serum starved cells
  endothelial cell proliferation (percentage BrdU labeling): promotes endothelial cell proliferation to a similar extent as VEGF
BAE/APJ#2 cells [2]; apelin 10 ng/ml with SU1498 10 ng/ml
  endothelial cell proliferation in the presence of the VEGF inhibitor SU1498: still able to promote proliferation
[4]
  blood vessel formation in the CAM: increased
  leakage of blood vessels in the CAM: increased
